Source: ChEMBL document CHEMBL1157937, “Discovery of novel leukotriene A4 hydrolase inhibitors based on piperidine and piperazine scaffolds” (Bioorg Med Chem Lett, 2010)

Key:
[1] = biological target: T1, Leukotriene A-4 hydrolase (Homo sapiens, UniProt P09960)
T1 sequence (P09960 whole entry): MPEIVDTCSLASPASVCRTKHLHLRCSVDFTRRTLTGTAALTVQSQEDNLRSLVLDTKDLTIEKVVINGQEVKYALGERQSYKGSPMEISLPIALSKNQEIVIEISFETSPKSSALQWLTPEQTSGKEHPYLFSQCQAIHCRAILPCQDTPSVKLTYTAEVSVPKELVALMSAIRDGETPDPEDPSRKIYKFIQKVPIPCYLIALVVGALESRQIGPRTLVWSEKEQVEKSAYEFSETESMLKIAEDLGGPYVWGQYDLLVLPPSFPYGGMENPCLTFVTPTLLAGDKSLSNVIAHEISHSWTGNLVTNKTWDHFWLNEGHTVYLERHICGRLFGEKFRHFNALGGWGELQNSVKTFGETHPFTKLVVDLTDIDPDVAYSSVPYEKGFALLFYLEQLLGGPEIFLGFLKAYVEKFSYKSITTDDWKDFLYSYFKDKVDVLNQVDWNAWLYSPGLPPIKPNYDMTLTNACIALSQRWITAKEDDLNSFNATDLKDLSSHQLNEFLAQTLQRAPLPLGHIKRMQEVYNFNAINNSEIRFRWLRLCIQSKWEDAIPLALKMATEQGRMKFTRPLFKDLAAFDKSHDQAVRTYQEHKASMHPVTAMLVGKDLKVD
Description: Inhibition of human recombinant LTA4H hydrolysis assessed as inhibition of LTB4 formation by LC-MS/MS

[2] = biological target: T1, Leukotriene A-4 hydrolase; remark: listed apart in the source
Description: Inhibition of human LTA4H hydrolysis assessed as inhibition of Ca2+ ionophore-stimulated LTB4 formation in human whole blood by ELISA

SMILES	IC50 [1]	IC50 [2]
O=C(O)CN1CCCC[C@H]1COc1ccc(Oc2ccc(Cl)cc2)cc1	880 nM	–
c1ccc(Cc2ccc(OC[C@H]3CCCCN3)cc2)cc1	94 nM	60 nM
Clc1ccc(Oc2ccc(OC[C@@H]3CCCCN3)cc2)cc1	110 nM	40 nM
c1ccc(Cc2ccc(OCC3CCCCN3)cc2)cc1 (racemic)	134 nM	105 nM
Clc1ccc(Oc2ccc(OC[C@@H]3CCCCN3Cc3ncon3)cc2)cc1	6900 nM	–
c1ccc(Oc2ccc(OCC3CCCCN3)cc2)cc1 (racemic)	70 nM	207 nM
c1ccc(Oc2ccc(OC[C@H]3CCCCN3)cc2)cc1	48 nM	126 nM
O=C(O)CCN1CCCC[C@H]1COc1ccc(Oc2ccc(Cl)cc2)cc1	212 nM	–
Clc1ccc(Cc2ccc(OC[C@@H]3CCCCN3)cc2)cc1	438 nM	–
O=C(O)CCCN1CCCC[C@@H]1COc1ccc(Oc2ccc(Cl)cc2)cc1	53 nM	6 nM
O=C(O)CCCN1CCCC[C@H]1COc1ccc(Oc2ccc(Cl)cc2)cc1	106 nM	23 nM
c1ccc(Oc2ccc(OC[C@@H]3CCCCN3)cc2)cc1	44 nM	286 nM
c1ccc(-c2ccc(Oc3ccc(OC[C@H]4CCCCN4)cc3)cc2)cc1	96 nM	29 nM
Fc1ccc(Oc2ccc(OC[C@@H]3CCCCN3)cc2)cc1	174 nM	90 nM
c1ccc(-c2ccc(Oc3ccc(OC[C@@H]4CCCCN4)cc3)cc2)cc1	114 nM	43 nM
FC(F)(F)c1ccc(Oc2ccc(OC[C@H]3CCCCN3)cc2)cc1	93 nM	173 nM
c1ccc(Cc2ccc(OCC3CNCCN3)cc2)cc1 (configuration not stated)	342 nM	–
c1cc(-c2ccc(Cc3ccc(OC[C@@H]4CCCCN4)cc3)cc2)cs1	60 nM	–
c1ccc(Cc2ccc(OCC3CN(Cc4ccccc4)CCN3)cc2)cc1 (configuration not stated)	660 nM	–
Clc1ccc(Cc2ccc(OC[C@H]3CCCCN3)cc2)cc1	315 nM	–
